Reference: patent US20240060047A1, “CELLS WITH SUSTAINED TRANSGENE EXPRESSION” (BlueRock Therapeutics LP, priority 2019, published 2024)

What was measured:
GAPDH locus = assay: gRNA cutting efficiency by ICE analysis, GAPDH locus; format: cell-based; settings: RNP with Cas9 nucleofected into human PSCs, gDNA at 72 hours
Protocol: (§1) CRISPR-Cas9 gene editing was performed to insert transgenes into the intended STEL sites in the following experiments. Three guide RNAs (gRNAs) were designed computationally to target the 3′ UTR of GAPDH proximal to the stop codon. Five gRNAs were designed computationally to target the 3′ UTR of RPL13A proximal to the stop codon. These gRNAs were designed to have a low number of off-target sites and have a high predicted activity against the target sequence.
(§2) To test gRNA cutting efficiency, gRNAs complexed with Cas9 nuclease were delivered as ribonucleoproteins (RNPs) separately into human PSCs via nucleofection. At 72 hours following nucleofection, gDNA was extracted from each pool of nucleofected cells. A region around the GAPDH or RPL13A locus intended cut site was PCR-amplified using the following primers: […]
(§3) Overall cutting efficiency of each gRNA was determined by Inference of CRISPR Edits (ICE) Analysis by comparing a Sanger sequencing chromatogram from unedited cells to the Sanger sequencing chromatogram from each gRNA condition.

RPL13A locus = assay: gRNA cutting efficiency by ICE analysis, RPL13A locus; format: cell-based; settings: RNP with Cas9 nucleofected into human PSCs, gDNA at 72 hours
Protocol: as §1, §2, §3

[1] = test system: GAPDH-targeted RapaCasp9 PSC line; assay: Flow cytometric analysis of cleaved Caspase 3 after rapamycin treatment; format: cell-based, human; settings: 5nM or 10 nM rapamycin, 24 hours of treatment
Protocol: A GAPDH-targeted RapaCasp9 PSC line was treated with either 5nM or 10 nM of rapamycin for 1, 2, 4 or 24 hours, and cells were harvested for flow cytometric analysis after each timepoint (FIG. 17). The primary antibody used was an anti-human/mouse cleaved caspase-3 conjugated to an Alexa Fluor® 488 […]. The primary antibody detects human and mouse Caspase 3 cleaved at Asp175. Caspase 3 is an executioner caspase that functions downstream of the initiator caspase, Caspase 9, in the apoptotic cascade. […] Upon induction of apoptosis through either cell stress or activation, it undergoes proteolysis into cleaved Caspase 3 subunits. […] There was negligible detection of cleaved Caspase 3 for edited PSCs not treated with rapamycin.

## 5′-CUUCCUCUUGUGCUCUUGCU-3′ (SEQ ID NO:7) (listed as RNA, chemistry not given here) [GAPDH gRNA, guide RNA targeting the 3′ UTR of GAPDH proximal to the stop codon]
GAPDH locus
  relative cutting efficiency: highest relative cutting efficiencies

## 5′-GGAAGGGCAGGCAACGCAUG-3′ (SEQ ID NO:8) (listed as RNA, chemistry not given here) [RPL13A gRNA, guide RNA targeting the 3′ UTR of RPL13A proximal to the stop codon]
RPL13A locus
  relative cutting efficiency: highest relative cutting efficiencies

## CO[C@H]1C[C@@H]2CC[C@@H](C)[C@@](O)(O2)C(=O)C(=O)N2CCCC[C@H]2C(=O)O[C@H]([C@H](C)C[C@@H]2CC[C@@H](O)[C@H](OC)C2)CC(=O)[C@H](C)/C=C(\C)[C@@H](O)[C@@H](OC)C(=O)[C@H](C)C[C@H](C)/C=C/C=C/C=C/1C [rapamycin]
[1]
  cells staining for cleaved Caspase 3: > 99%
